Experimental data taken from the NIST ThermoML archive (doi:10.1021/je060271a).
Numbers after ± are expanded uncertainties.

Details: 303.16 K, Liquid, Vibrating tube method

CCCC(=O)OCC(COC(=O)CCC)(COC(=O)CCC)COC(=O)CCC [pentaerythritol tetrabutyrate]
Details	mass density [kg/m3]
11210 kPa	1049.3 ± 1.3
11243 kPa	1049.3 ± 1.3
11283 kPa	1049.4 ± 1.3
11317 kPa	1049.5 ± 1.3
11359 kPa	1049.5 ± 1.3
11394 kPa	1049.4 ± 1.3
11436 kPa	1049.6 ± 1.3
11472 kPa	1049.6 ± 1.3
11511 kPa	1049.6 ± 1.3
11541 kPa	1049.5 ± 1.3
11577 kPa	1049.6 ± 1.3
11607 kPa	1049.6 ± 1.3
11641 kPa	1049.7 ± 1.3
11666 kPa	1049.6 ± 1.3
11688 kPa	1049.6 ± 1.3
11714 kPa	1049.7 ± 1.3
11736 kPa	1049.8 ± 1.3
11763 kPa	1049.7 ± 1.3
11789 kPa	1049.7 ± 1.3
11811 kPa	1049.8 ± 1.3
11838 kPa	1049.7 ± 1.3
11865 kPa	1049.9 ± 1.3
11888 kPa	1049.8 ± 1.3
11910 kPa	1049.8 ± 1.3
11936 kPa	1049.9 ± 1.3
11964 kPa	1049.8 ± 1.3
11987 kPa	1049.8 ± 1.3
12015 kPa	1049.9 ± 1.3
12038 kPa	1049.9 ± 1.3
12068 kPa	1049.8 ± 1.3
12093 kPa	1049.9 ± 1.3
12117 kPa	1050 ± 1.3
12145 kPa	1050 ± 1.3
12173 kPa	1050 ± 1.3
12197 kPa	1050 ± 1.3
12221 kPa	1050 ± 1.3
12250 kPa	1050.1 ± 1.3
12278 kPa	1050 ± 1.3
12302 kPa	1050.2 ± 1.3
12331 kPa	1050.1 ± 1.3
12356 kPa	1050.1 ± 1.3
12385 kPa	1050.2 ± 1.3
12416 kPa	1050.1 ± 1.3
12441 kPa	1050.1 ± 1.3
12466 kPa	1050.1 ± 1.3
12496 kPa	1050.2 ± 1.3
12521 kPa	1050.1 ± 1.3
12551 kPa	1050.3 ± 1.3
12576 kPa	1050.2 ± 1.3
12607 kPa	1050.3 ± 1.3
12637 kPa	1050.3 ± 1.3
12663 kPa	1050.3 ± 1.3
12694 kPa	1050.2 ± 1.3
12720 kPa	1050.2 ± 1.3
12751 kPa	1050.3 ± 1.3
12782 kPa	1050.3 ± 1.3
12808 kPa	1050.4 ± 1.3
12840 kPa	1050.4 ± 1.3
12867 kPa	1050.4 ± 1.3
12899 kPa	1050.5 ± 1.3
12926 kPa	1050.4 ± 1.3
12959 kPa	1050.5 ± 1.3
12986 kPa	1050.6 ± 1.3
13019 kPa	1050.6 ± 1.3
13051 kPa	1050.6 ± 1.3
13078 kPa	1050.5 ± 1.3
13111 kPa	1050.6 ± 1.3
13173 kPa	1050.6 ± 1.3
13201 kPa	1050.6 ± 1.3
13235 kPa	1050.5 ± 1.3
13264 kPa	1050.6 ± 1.3
13297 kPa	1050.5 ± 1.3
13332 kPa	1050.7 ± 1.3
13360 kPa	1050.6 ± 1.3
13395 kPa	1050.8 ± 1.3
13424 kPa	1050.7 ± 1.3
13459 kPa	1050.9 ± 1.3
13493 kPa	1050.9 ± 1.3
13522 kPa	1050.8 ± 1.3
13558 kPa	1050.8 ± 1.3
13589 kPa	1050.9 ± 1.3
13625 kPa	1050.9 ± 1.3
13656 kPa	1050.9 ± 1.3
13693 kPa	1050.9 ± 1.3
13723 kPa	1051 ± 1.3
13761 kPa	1051 ± 1.3
13791 kPa	1050.9 ± 1.3
13829 kPa	1050.9 ± 1.3
13859 kPa	1051.1 ± 1.3
13897 kPa	1051 ± 1.3
13934 kPa	1051 ± 1.3
13966 kPa	1050.9 ± 1.3
14003 kPa	1051.1 ± 1.3
14035 kPa	1051.2 ± 1.3
14072 kPa	1051.1 ± 1.3
14111 kPa	1051.1 ± 1.3
14144 kPa	1051.1 ± 1.3
14184 kPa	1051.2 ± 1.3
14217 kPa	1051.3 ± 1.3
14257 kPa	1051.4 ± 1.3
14291 kPa	1051.4 ± 1.3
14332 kPa	1051.2 ± 1.3
14367 kPa	1051.3 ± 1.3
14409 kPa	1051.4 ± 1.3
14443 kPa	1051.4 ± 1.3
14483 kPa	1051.4 ± 1.3
14513 kPa	1051.5 ± 1.3
14547 kPa	1051.5 ± 1.3
14581 kPa	1051.5 ± 1.3
14609 kPa	1051.5 ± 1.3
14643 kPa	1051.4 ± 1.3
14672 kPa	1051.4 ± 1.3
14706 kPa	1051.5 ± 1.3
14740 kPa	1051.5 ± 1.3
14770 kPa	1051.6 ± 1.3
14804 kPa	1051.6 ± 1.3
14839 kPa	1051.7 ± 1.3
14868 kPa	1051.5 ± 1.3
14907 kPa	1051.6 ± 1.3
14937 kPa	1051.7 ± 1.3
14972 kPa	1051.7 ± 1.3
15002 kPa	1051.8 ± 1.3
15038 kPa	1051.9 ± 1.3
15069 kPa	1051.7 ± 1.3
15106 kPa	1051.8 ± 1.3
15136 kPa	1051.8 ± 1.3
15174 kPa	1051.7 ± 1.3
15210 kPa	1051.9 ± 1.3
15242 kPa	1051.9 ± 1.3
15279 kPa	1051.8 ± 1.3
15312 kPa	1051.9 ± 1.3
15345 kPa	1051.9 ± 1.3
15384 kPa	1052.1 ± 1.3
15415 kPa	1052 ± 1.3
15453 kPa	1052 ± 1.3
15492 kPa	1052 ± 1.3
15525 kPa	1052.1 ± 1.3
15564 kPa	1052.2 ± 1.3
15597 kPa	1052.1 ± 1.3
15637 kPa	1052.1 ± 1.3
15671 kPa	1052.1 ± 1.3
15710 kPa	1052.1 ± 1.3
15743 kPa	1052.1 ± 1.3
15783 kPa	1052.3 ± 1.3
15823 kPa	1052.2 ± 1.3
15857 kPa	1052.2 ± 1.3
15897 kPa	1052.3 ± 1.3
